# Read-outs that look alike come from different tables or passages of the source.
# Key:
# Assay type in all cases: cell-based
# [1] = biological target: T1, progesterone receptor (PR) (Homo sapiens, UniProt P06401); assay: Assay for agonist activity on progesterone receptor (luciferase reporter, HEK293 cells transfected with pBIND-PR plasmid); details: for EC50: EC50 of agonist activity, HEK293 reporter cells, top concentration 50 µM, read-out: Nuclear receptor enzyme activity (nM) PR; for Target selectivity PR/GR: ratio of EC50 values
# T1 sequence (P06401 678-933): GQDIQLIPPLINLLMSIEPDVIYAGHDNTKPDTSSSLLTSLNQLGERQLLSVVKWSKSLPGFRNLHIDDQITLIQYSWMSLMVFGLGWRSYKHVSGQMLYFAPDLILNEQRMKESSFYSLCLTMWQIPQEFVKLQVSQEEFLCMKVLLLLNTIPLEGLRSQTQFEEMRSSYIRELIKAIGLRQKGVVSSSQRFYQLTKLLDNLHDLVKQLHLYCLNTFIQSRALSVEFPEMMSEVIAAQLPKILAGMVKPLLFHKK
# Protocol: (§1) Pharmacological Example 2: Assay for Agonist Activity on Mineralocorticoid Receptor (MR) and Progesterone Receptor (PR)
# (§2) Test compound stock solutions: The test compounds (compounds 4, 5, 7, 8, 9, 11, 13, 16, 17, 18, 22, 23, 24, 34, 35, 36, 38, 41, 45, 47, 53, 55, and 59) were accurately weighed, dissolved in DMSO to prepare stock solutions at a concentration of 20 mM, and stored at -20 °C.
# (§3) The test compounds were subjected to a 4-fold serial dilution starting from an initial concentration of 50 µ M, generating a 12-point concentration gradient with duplicate wells for each concentration. The blank control consisted of 0.1% DMSO.
# (§4) The HEK293 stable cell lines […] transfected with mineralocorticoid receptor (MR) and progesterone receptor (PR) (ICE Bioscience, Lot No. TYP-20220819, TPJ-20220812) were cultured in Dulbecco's Modified Eagle Medium (DMEM) supplemented with 10% fetal bovine serum (FBS) and 200 µ g/ml Hygromycin B in a cell incubator containing 5% CO2 at 37 °C. The spent medium was aspirated, and the cells were washed once with phosphate-buffered saline (PBS). Then, 1 mL of TrypLE™ Express solution was added, and the cells were incubated at 37 °C for approximately 2 min. When the cells detached from the bottom of the cell culture dish, approximately 5 mL of pre-warmed complete medium at 37 °C was added. The cell suspension was gently pipetted with a pipette to dissociate clumped cells. The cell suspension was transferred to a sterile centrifuge tube and centrifuged at 1000 rpm for 5 min to pellet the cells for experiments or subculture..
# (§5) HEK293 cells were digested and seeded into 6-cm culture dishes. The pBIND-MR and pBIND-PR plasmids were separately transfected into the HEK293 cells using a transfection reagent, resulting in HEK293 cells successfully transfected with the pBIND-MR and pBIND-PR plasmids, respectively. The cells were resuspended in phenol red-free DMEM medium containing 5% charcoal-stripped serum, counted, and then seeded into 96-well plates. The test compounds were added, and the plates were then incubated in an incubator. The luminescence signal values were measured using a multimode microplate reader following the instructions of the luciferase assay kit. The EC50 values of each test compound were calculated using the nonlinear fitting formula with GraphPad Prism 8.0 software.
# [2] = biological target: T2, glucocorticoid receptor (GR) (Homo sapiens, UniProt P04150); assay: Assay for agonist activity on glucocorticoid receptor (luciferase reporter, HEK293 cells transfected with pBIND-GR plasmid)
# T2 sequence (P04150 521-777): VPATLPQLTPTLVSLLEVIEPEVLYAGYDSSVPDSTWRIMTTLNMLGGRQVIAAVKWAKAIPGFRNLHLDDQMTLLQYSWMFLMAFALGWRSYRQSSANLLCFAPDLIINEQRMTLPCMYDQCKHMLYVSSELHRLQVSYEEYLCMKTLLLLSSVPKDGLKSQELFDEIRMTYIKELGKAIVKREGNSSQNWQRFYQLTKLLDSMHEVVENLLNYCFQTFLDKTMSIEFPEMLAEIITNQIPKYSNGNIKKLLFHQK
# Method in brief: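 HEK293 cells transfected with pBIND-GR, seeded in phenol red-free DMEM with 5% charcoal-stripped serum, then exposed to compounds in a 10-point, 4-fold dilution series from 10 µM, in duplicate. Luciferase luminescence read after incubation; EC50 from nonlinear fit. Vehicle blank: 0.1% DMSO.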
# [3] = biological target: T3, mineralocorticoid receptor (MR) (Homo sapiens, UniProt P08235); assay: Assay for agonist activity on mineralocorticoid receptor (luciferase reporter, HEK293 cells transfected with pBIND-MR plasmid); details: for EC50: EC50 of agonist activity, HEK293 reporter cells, top concentration 50 µM, read-out: Nuclear receptor enzyme activity (nM) MR; for Target selectivity MR/GR: ratio of EC50 values
# T3 sequence (P08235 726-984): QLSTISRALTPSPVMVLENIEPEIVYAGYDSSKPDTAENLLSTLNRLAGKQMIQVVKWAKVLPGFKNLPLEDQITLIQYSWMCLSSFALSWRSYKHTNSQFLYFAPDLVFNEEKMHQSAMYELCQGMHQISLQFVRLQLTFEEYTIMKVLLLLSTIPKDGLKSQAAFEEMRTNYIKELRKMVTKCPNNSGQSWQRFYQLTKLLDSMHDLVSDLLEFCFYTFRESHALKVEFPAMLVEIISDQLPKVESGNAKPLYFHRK
# Protocol: as §1, §2, §3, §4, §5
# [4] = EC50 of agonist activity, HEK293 reporter cells, read-out: Nuclear receptor enzyme activity (nM) GR
# [5] = HEK293 cells transfected with pBIND-GR, luciferase signal, read-out: GR agonist EC50
smiles,measurement,setting,value
"C[C@]12C=CC(=O)C=C1CC[C@H]1[C@@H]3C[C@H]4OC(c5ccc(CSC6CCOC6=O)cc5)O[C@@]4(C(=O)CCl)[C@@]3(C)C[C@H](O)[C@@]12Cl (stereo partly drawn) [Compound 38, (6aS,6bR,7S,8aS,8bS,11aR,12aS,12bS)-6b-chloro-8b-(2-chloroacetyl)-7-hydroxy-6a,8a-dimethyl-10-(4-(((2-oxotetrahydrofuran-3-yl)thio)methyl)phenyl)-1,2,6a,6b,7,8,8a,8b,11a,12,12a,12b-dode cahydro-4H-naphtho[2',1':4,5]indeno[1,2-d][1,3]dioxol-4-one]",EC50,[1],> 50000 nM
same,Target selectivity PR/GR,[1],> 4.5×10^5
same,EC50,[2]; [4],0.11 nM
same,EC50,[2]; [5],0.11 nM
same,EC50,[3],> 50000 nM
same,Target selectivity MR/GR,[3],> 4.5×10^5
"C[C@]12C=CC(=O)C=C1CC[C@H]1[C@@H]3C[C@H]4OC(c5cnc(CSC6CCOC6=O)nc5)O[C@@]4(C(=O)CO)[C@@]3(C)C[C@H](O)[C@@]12F (stereo partly drawn) [Compound 53, (6aS,6bR,7S,8aS,8bS,11aR,12aS,12bS)-6b-Fluoro-7-hydroxy-8b-(2-hydroxyacetyl)-6a,8a-dimethyl-10-(2-(((2-oxotetrahydrofuran-3-yl)thio)methyl)pyrimidin-5-yl)-1,2,6a,6b,7,8,8a,8b,11a,12,12a, 12b-dodecahydro-4H-naphtho[2',1':4,5]indeno[1,2-d][1,3]dioxol-4-one]",EC50,[1],> 50000 nM
same,Target selectivity PR/GR,[1],6017
same,EC50,[2]; [4],8.31 nM
same,EC50,[2]; [5],8.31 nM
same,EC50,[3],> 50000 nM
same,Target selectivity MR/GR,[3],6017
"C[C@]12C=CC(=O)C=C1[C@@H](F)C[C@H]1[C@@H]3C[C@H]4OC(c5ccc(COC6CCOC6=O)cc5F)O[C@@]4(C(=O)CO)[C@@]3(C)C[C@H](O)[C@@]12F (stereo partly drawn) [Compound 7, (2S,6aS,6bR,7S,8aS,8bS,11aR,12aS,12bS)-2,6b-Difluoro-10-(2-fluoro-4-(((2-oxotetrahydrofuran-3-yl)oxy)methyl)phenyl)-7-hydroxy-8b-(2-hydroxyacetyl)-6a,8a-dimethyl-1,2,6a,6b,7,8,8a,8b,11a, 12,12a,12b-dodecahydro-4H-naphtho[2',1':4,5]indeno[1,2-d][1,3]dioxol-4-one]",EC50,[1],> 50000 nM
same,Target selectivity PR/GR,[1],> 4.1×10^4
same,EC50,[2]; [4],1.21 nM
same,EC50,[2]; [5],1.21 nM
same,EC50,[3],> 50000 nM
same,Target selectivity MR/GR,[3],> 4.1×10^4
"C[C@]12C=CC(=O)C=C1[C@@H](F)C[C@H]1[C@@H]3C[C@H]4OC(c5ccc(OCC6CCOC6=O)cc5)O[C@@]4(C(=O)CO)[C@@]3(C)C[C@H](O)[C@@]12F (stereo partly drawn) [Compound 13, (2S,6aS,6bR,7S,8aS,8bS,11aR,12aS,12bS)-2,6b-Difluoro-7-hydroxy-8b-(2-hydroxyacetyl)-6a,8a-dimethyl-10-(4-((2-oxotetrahydrofuran-3-yl)methoxy)phenyl)-1,2,6a,6b,7,8,8a,8b,11a,12,12a,12b-dodecahydro-4H-naphtho[2',1':4,5]indeno[1,2-d][1,3]dioxol-4-one]",EC50,[1],> 50000 nM
same,Target selectivity PR/GR,[1],> 1.4×10^4
same,EC50,[2]; [4],3.43 nM
same,EC50,[2]; [5],3.43 nM
same,EC50,[3],> 50000 nM
same,Target selectivity MR/GR,[3],> 1.4×10^4
"C[C@]12C=CC(=O)C=C1CC[C@H]1[C@@H]3C[C@H]4OC(c5ccc(SC6CCOC6=O)cc5)O[C@@]4(C(=O)CO)[C@@]3(C)C[C@H](O)[C@@]12F (stereo partly drawn) [Compound 41, (6aS,6bR,7S,8aS,8bS,11aR,12aS,12bS)-6b-Fluoro-7-hydroxy-8b-(2-hydroxyacetyl)-6a,8a-dimethyl-10-(4-((2-oxotetrahydrofuran-3-yl)thio)phenyl)-1,2,6a,6b,7,8,8a,8b,11a,12,12a,12b-dodecahydr o-4H-naphtho[2',1':4,5]indeno[1,2-d][1,3]dioxol-4-one]",EC50,[1],> 50000 nM
same,Target selectivity PR/GR,[1],> 8077
same,EC50,[2]; [4],6.19 nM
same,EC50,[2]; [5],6.19 nM
same,EC50,[3],> 50000 nM
same,Target selectivity MR/GR,[3],> 8077
"C[C@]12C=CC(=O)C=C1CC[C@H]1[C@@H]3C[C@H]4OC(c5ccc(CNC6CCOC6=O)cc5)O[C@@]4(C(=O)CO)[C@@]3(C)C[C@H](O)[C@@]12Cl (stereo partly drawn) [Compound 24, (6aS,6bR,7S,8aS,8bS,11aR,12aS,12bS)-6b-Chloro-7-hydroxy-8b-(2-hydroxyacetyl)-6a,8a-dimethyl-10-(4-(((2-oxotetrahydrofuran-3-yl)amino)methyl)phenyl)-1,2,6a,6b,7,8,8a,8b,11a,12,12a,12b-dodecahydro-4H-naphtho[2',1':4,5]indeno[1,2-d][1,3]dioxol-4-one]",EC50,[1],> 50000 nM
same,Target selectivity PR/GR,[1],> 4.5×10^4
same,EC50,[2]; [4],1.12 nM
same,EC50,[2]; [5],1.12 nM
same,EC50,[3],> 50000 nM
same,Target selectivity MR/GR,[3],> 4.5×10^4
"C[C@]12C=CC(=O)C=C1[C@@H](F)C[C@H]1[C@@H]3C[C@H]4OC(C5CCN(C(=O)C6COC(=O)C6)CC5)O[C@@]4(C(=O)SCF)[C@@]3(C)C[C@H](O)[C@@]12F (stereo partly drawn) [Compound 4, S-(Fluoromethyl) (2S,6aS,6bR,7S,8aS,8bS,11aR,12aS,12bS)-2,6b-difluoro-7-hydroxy-6a,8a-dimethyl-4-oxo-10-(1-(5-oxotetrahydrofuran-3-carbonyl)piperidin-4-yl)-1,2,4,6a,6b,7,8,8a,11a,12,12a,12b-dodecahydro-8bH-naphtho[2',1':4,5]indeno[1,2-d][1,3]dioxole-8b-carbothioate]",EC50,[1],> 50000 nM
same,Target selectivity PR/GR,[1],> 4223
same,EC50,[2]; [4],11.8 nM
same,EC50,[2]; [5],11.8 nM
same,EC50,[3],> 50000 nM
same,Target selectivity MR/GR,[3],> 4223
"C[C@]12C=CC(=O)C=C1CC[C@H]1[C@@H]3C[C@H]4OC(c5ccc(CNC6CCOC6=O)cc5)O[C@@]4(C(=O)CO)[C@@]3(C)C[C@H](O)[C@@]12F (stereo partly drawn) [Compound 18, (6aS,6bR,7S,8aS,8bS,11aR,12aS,12bS)-6b-Fluoro-7-hydroxy-8b-(2-hydroxyacetyl)-6a,8a-dimethyl-10-(4-(((2-oxotetrahydrofuran-3-yl)amino)methyl)phenyl)-1,2,6a,6b,7,8,8a,8b,11a,12,12a,12b-dodecahydro-4H-naphtho[2',1':4,5]indeno[1,2-d][1,3]dioxol-4-one]",EC50,[1],> 50000 nM
same,Target selectivity PR/GR,[1],> 3.1×10^4
same,EC50,[2]; [4],1.62 nM
same,EC50,[2]; [5],1.62 nM
same,EC50,[3],> 50000 nM
same,Target selectivity MR/GR,[3],> 3.1×10^4
